The record followed here is US9643032B2, “Application of dehydroascorbic acid or derivatives/isomers thereof for artificially coloring the skin” (L'Oreal, priority 2007, dated 2017).

This test has as its system Episkin model of reconstructed skin. Put plainly: Skin coloring on the Episkin model of reconstructed skin, spectrocolorimeter measurement after washing. The test is classed as cell-based. The protocol:
The products are evaluated on the Episkin model of reconstructed skin after 18 days of culturing. The crucibles are placed on Whatman paper. 20 μl of a 5 wt % solution of test product in a 50% water/50% ethanol mixture. […] A second rinse is performed with 1 ml of water. The residual liquid is absorbed using a soft paper tissue. The measurements are taken using a Minolta CM-2600d spectrocolorimeter.
Spectrocolorimeter Minolta CM2600d
The results are expressed in the system (L*, a*, b*) dans lequel L* is the luminance, a* is the red-green axis (−a*=green, +a*=red) and b* is the yellow/blue axis (−b*=blue, +b*=yellow). Therefore, a* and b* express the coloring of the skin.
The color deviation is obtained with the color deviation formula of Hunter in the calorimetric domain L, a, b: (ΔE)^2=[(ΔL)^2+(Δa)^2+(Δb)^2]. ΔE is the darkening, the global intensity of the color: The more ΔE is important the more the color darkened.

Setting [1] is: 5 wt % solution in 50% water/50% ethanol, 20 μl, after 24 hours, after washing.

Molecules are shown by their SMILES.

Turning to `O=C1OC(C(O)CO)C(=O)C1=O` (stereo not drawn) [Dehydroascorbic acid, threo-2,3-hexodiulosono-1,4-lactone, 9CI], under setting [1], the “L* (luminance / intensity)” value was 77.7, the “a* (red component)” value is on record as 4.8 and the “b* (yellow component)” value amounted to 35. For the same compound, for the setting “5 wt % solution, after 24 hours, after washing, deviation versus Episkin alone”, the “ΔE*ab (color deviation, darkening)” value came out at 14.6. For the same compound, the “Shade obtained compared with DHA” value (concentration equal to 5 wt %) was “stronger shade with a more pronounced dominant red”.
